# Experiments:
# [1] = Neuropsychological and neurophysiological testing of AEDs, double-blind randomized two period crossover; format: in vivo, healthy adult volunteers
# Text: The purpose of the underlying study was to evaluate the neuropsychological and neurophysiological effects of the AED carbamazepine (CBZ), and the AED levitiracetam (LEV) in healthy subjects, employing a double-blind, two period crossover design (Meador et al., 2007). In accordance with the present invention, data at non-drug baseline sessions predicted which subjects would have the most negative effects of CBZ.
# A total of 28 healthy adult volunteers without history of neurological or psychiatric diseases completed the protocol (17 women; 11 men; mean age=33 years, range=18-51). All subjects remained free of centrally active prescription medications throughout the study.
# The study employed a double-blind, randomized, two period crossover design. Subjects were screened and tested at the non-drug baseline.
# Subsequently, they were randomly assigned to receive either AED. Each AED was administered over eight weeks, which included a titration period and a one month maintenance period. Each AED treatment period was followed by a four day taper and a washout period for the remainder of the four weeks. Then, subjects were treated with the other AED for eight weeks followed by a final four week washout period.
# CBZ was given at 200 mg/day for the first week, 200 mg/day bid for the 2nd week, then adjusted to midrange anticonvulsant blood levels (ABLs) at tid dosages. LEV was begun at 500 mg/day for two weeks, then increased to 500 mg bid for two weeks, then increased to 1000 mg bid.
# Subjects underwent neuropsychological and neurophysiological testing on six occasions (i.e., two AED conditions and four non-drug conditions) over 25 weeks. Test sessions occurred at week one before drug administration, at week nine after four weeks of titration and maintenance on the first drug for four weeks, at week 21 after 4 weeks of wash out, 4 weeks of titration on drug 2 and 4 weeks maintenance on drug 2, and at week 25 after 4 weeks of washout.
# Patient data was obtained in accordance with procedures set forth in U.S. Pat. Nos. 6,947,790; 6,434,419 and 5,295,491; in this embodiment EEG data was obtained simultaneously with the subject taking a test battery of attention demanding tasks, for example a set of psychometric tasks.
# Data was obtained from a verbal episodic memory task consisting of a word presentation phase, during which subjects had to indicate whether each word contained 1 or 2 syllables, and a delayed recognition phase in which subjects had to indicate whether each word had been presented earlier. A working memory task was presented in between these two phases, and acted as a distracter task. During the first repetition of this sequence, the working memory task was a low-load 1-back task, and during the second repetition, the working memory task was a high-load 2-back task. A number of standard neuropsychological and subjective rating scales were also administered. Test sessions lasted about an hour.
# [2] = Symbol Digits Modality Test (SDMT) after taking CBZ; format: in vivo, healthy adult volunteers
# Text: The SDMT is a standard neuropsychological test of “executive function” and includes complex scanning, visual tracking, and agility components. These non-drug baseline values of task performance, EEG, and evoked potential variables that were most sensitive to the effects of CBZ were used as candidate independent predictor variables. Stepwise multiple linear regression analysis was used to identify which of these candidate independent predictor variables at baseline best predicted the change in the SDMT after taking CBZ.
# [3] = Post-drug EEG and subjective scale measures (LDA neurocognitive drug response score); format: in vivo, healthy adult volunteers; conditions: post-drug vs non-drug baseline
# Text: Using the data and methods described in Example 1, we determined how a combination of post-drug EEG and the subject's subjective scale measures quantifies the response to carbamazepine. Accordingly, a stepwise linear discriminant analysis (LDA) was used to generate a neurocognitive drug response score for each subject, reflecting the magnitude of neurocognitive response to the drug as compared with the non-drug baseline. The sensitivity and specificity in detecting the effect of the drug were both 100%. Three variables were used in the LDA, of which two were EEG and one was a subjective scale measure. The EEG variables were occipito-parietal 2-10 Hz EEG power in all tasks (relative weight 0.6) which increased consequent to CBZ, peak alpha frequency in all tasks (relative weight 0.3) which decreased consequent to CBZ, and self-reported fatigue rating on the Profile of Mood Scale (POMS, Jacobson et al., 1978) (relative weight 0.3) which increased consequent to CBZ.
# [4] = EEG with 1-back working memory task during methylphenidate dose titration in pediatric ADHD; format: in vivo, patients diagnosed with ADHD
# Description: Fourteen patients diagnosed with ADHD and clinically classified by a physician specialist in ADHD as MPH-responders (patients who would benefit from taking MPH) completed the protocol (11 males, 3 females; age range 8-18, mean 11.3, standard deviation 3.1). All patients weighed more than 25 kg.
# Patients received one week each of placebo (0 mg), 5 mg, 10 mg, 15 mg, and 20 mg daily doses of MPH for a total of five weeks, according to a fully counterbalanced, placebo-controlled, double-blind design. In this example EEG data was obtained concurrent with selected attention demanding tasks. […] Accordingly, an EEG computer-based examination was obtained simultaneously with the subject taking a test battery of attention demanding tasks, for example a set of psychometric tasks. Such data was obtained once a week, 1-3 hours post-ingestion of the prescribed dose for that week. Examinations were administered approximately the same time of day and on the same day of the week during the dose titration period. The protocol used in this study included a low-load simple reaction time task (SRT) task and a higher-load 1-back working memory (WM) task in sessions lasting about half an hour.
# Analysis focused on the 1-back working memory task whose performance and EEG signals were most affected by MPH A divergence-based multivariate feature selection and pattern classification algorithm (for convenience called the neuroworkload meter—Gevins and Smith, 2003; Smith, Gevins, et al, 2001) was employed to choose and weight an optimal subset of features to characterize the MPH response.
# A set of candidate 1-back WM performance and attention-sensitive EEG features most affected by varying MPH doses was selected based on the prior statistical analyses of the average of the MPH doses followed by visual inspection of the grand averaged EEG power spectra and evoked potential data. Feature subsets were limited to a maximum of four variables because of the small number of subjects in the experiment. […]
# [5] = in vivo; cited from earlier work
smiles,measurement,setting,value
"NC(=O)N1c2ccccc2C=Cc2ccccc21 [CBZ, carbamazepine]",variables worse compared to the non-drug average,"[1]; CBZ 36 of 55, LEV 4 of 33",65%
same,low frequency (<10 Hz) EEG power,[1]; after one month maintenance,increase
same,subjects with a decline in SDMT score of at least 15%,[2]; 28 subjects,Six of the 28 subjects
same,average decline in SDMT,"[2]; actual, across the 28 subjects, p<0.0003",6.7%
same,occipito-parietal 2-10 Hz EEG power in all tasks,[3],increased
same,peak alpha frequency in all tasks,[3],decreased
same,self-reported fatigue rating on the Profile of Mood Scale (POMS),[3],increased
"CC[C@@H](C(N)=O)N1CCCC1=O [LEV, levetiracetam]",untoward neuropsychological and neurophysiological effects,[1]; in vivo,fewer untoward neuropsychological and neurophysiological effects than did CBZ
same,"variables with significant differences between the AEDs, all in favor of LEV",[1]; in vivo,42%
same,variables worse compared to the non-drug average,[1]; in vivo,12%
"COC(=O)C(c1ccccc1)C1CCCCN1 (stereo not drawn) [MPH, methylphenidate]",dose-response relationship across patients,"[4]; 0, 5, 10, 15, 20 mg daily, one week each",did not reveal any systematic dose-response relationship
same,effect size (Cohen's d) of four-variable equation score,[4]; 20 mg vs placebo,2.12
same,"effect size (Cohen's d), dose with the highest score vs placebo",[4]; two-dose test analysis,3.43
CC1(C)O[C@@H]2[C@@H](CO[C@@]3(COS(N)(=O)=O)OC(C)(C)O[C@@H]23)O1 [topiramate],2-6 Hz EEG power,[5],increased
same,working memory task performance,[5],adversely affected

# From patent publication US20080167571A1, “DETERMINATION OF TREATMENT RESULTS PRIOR TO TREATMENT OR AFTER FEW TREATMENT EVENTS” (priority 2006, published 2008)
